Where “and” joins values, the source holds several entries; their conditions need not be identical. Equal entries are not always repeated. Entries after “also recorded” stand apart in the source; their conditions may differ. Where two headings read alike, the source gives them in different places.
Columns and labels:
[1] = biological target: T1, ORF3a viroporin of SARS-CoV-2 (Severe acute respiratory syndrome coronavirus 2, UniProt P0DTC3); details: for activity against ORF3a (ORF3a-induced cytotoxicity): cell viability assay, result in words
SARS-CoV = details: cited from earlier work
[2] = tested on: HEK293 cells transfected with ORF3a; assay type: cell-based
[3] = biological target: T2, ORF3a channel of SARS-CoV-2 (Severe acute respiratory syndrome coronavirus 2, UniProt P0DTC3); test: cell-based; details: for IC50: whole-cell currents, current differences at −60 mV, read-out: IC50, patch-clamp
T2 sequence (P0DTC3 1-275): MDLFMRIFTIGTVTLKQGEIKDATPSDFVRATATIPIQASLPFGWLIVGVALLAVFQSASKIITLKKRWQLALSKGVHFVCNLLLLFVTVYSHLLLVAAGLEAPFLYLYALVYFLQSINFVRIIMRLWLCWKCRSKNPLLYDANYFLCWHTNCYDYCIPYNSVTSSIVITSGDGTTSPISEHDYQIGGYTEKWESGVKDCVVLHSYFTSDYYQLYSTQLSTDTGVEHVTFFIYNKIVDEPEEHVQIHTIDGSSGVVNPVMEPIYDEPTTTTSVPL

[4] = biological target: T1, ORF3a viroporin of SARS-CoV-2; test: cell-based; details: IC50, reversing viroporin-induced cell damage
HCoV-OC43 = details: cited from earlier work
ORF3a of SARS-CoV [5] = details: cited from earlier work
ORF3a of SARS-CoV [6] = details: Xenopus oocytes; cited from earlier work
HEK293 cells = test: MTT cell viability assay of control cells transfected with empty vector; assay type: cell-based; details: 5 µM and higher (> 1 µM for ECGC), 10–20 µM
[7] = current–voltage recordings, result in words

Molecule | activity against ORF3a (ORF3a-induced cytotoxicity) [1] | activity against ORF3a channel in patch-clamp [3, 7] | IC50 [4] | IC50 [3] [nM] | also measured
CCCCC[C@H](O)CC(=O)CCc1ccc(O)c(OC)c1 [6-gingerol] | inactive | inactive |  |  | activity in the same expression system (SARS-CoV; Vero E6 cells): only low activity; morphology of ORF3a-transfected cells after treatment [2]: morphology of dying cells
NC12CC3CC(CC(C3)C1)C2 [amantadine, reference compound] |  |  | 43700 ± 11100 nM | 4.5 ± 0.2 | Percentage inhibition from MTT data at the highest inhibitor concentration ([1]; Fig. 4D): 78%
O=c1cc(-c2ccc(O)cc2)oc2cc(O)cc(O)c12 [apigenin] | inactive |  |  |  | 
COc1cc(/C=C/C(=O)CC(=O)/C=C/c2ccc(O)c(OC)c2)ccc1O [curcumin] |  |  |  |  | Percentage inhibition from MTT data at the highest inhibitor concentration [1]: 72%; inhibition of viral replication (SARS-CoV; SARS-CoV infected Vero E6 cells): effectively inhibited viral replication; activity against ORF3a channel in patch-clamp [3]: confirmed the inhibitory activity
Cc1cc(O)c2c(c1)C(=O)c1cc(O)cc(O)c1C2=O [emodin] |  |  |  |  | virus release (HCoV-OC43): able to repress virus release; inhibition of ORF3a of SARS-CoV (ORF3a of SARS-CoV [5]): inhibitor
O=c1c(-c2ccc(O)cc2)coc2cc(O)cc(O)c12 [genistein] | inactive |  |  |  | inhibition of ORF3a activity of SARS-CoV (ORF3a of SARS-CoV [6]): do not
O=c1c(O)c(-c2ccc(O)cc2)oc2cc(O)cc(O)c12 [kaempferol] | inhibitory activity |  | 5200 nM and 5230 nM | 2.4 ± 0.5 | 
O=C1C[C@@H](c2ccc(O)cc2)Oc2cc(O)cc(O)c21 [naringenin] | inactive |  |  |  | inhibition of ORF3a activity of SARS-CoV (ORF3a of SARS-CoV [6]): do not
COc1ccc(-c2cc(=O)c3c(OC)c(OC)c(OC)c(OC)c3o2)cc1OC [nobiletin] | inhibitory activity | confirmed the inhibitory activity | 3800 ± 900 nM | 1.8 ± 0.3 | activity against ORF3a (ORF3a-induced cytotoxicity) ([1]; listed as Nobiletin): potent activity; effect on viability of control cells (cytotoxic or proliferative effects) (HEK293 cells): increased cell proliferation; also recorded: increased cell viability
O=c1c(O)c(-c2ccc(O)c(O)c2)oc2cc(O)cc(O)c12 [quercetin] | inhibitory activity | confirmed the inhibitory activity | 2500 ± 200 nM | 3.9 ± 0.7 | effect on viability of control cells (cytotoxic or proliferative effects) (HEK293 cells): increased cell proliferation; effect on viability of control cells (cytotoxic or proliferative effects) (HEK293 cells; listed as Quercetin): increased cell viability
Oc1ccc(/C=C/c2cc(O)cc(O)c2)cc1 [resveratrol] | inhibitory activity | confirmed the inhibitory activity | 6700 nM and 6730 nM | 1.5 ± 0.1 | Percentage inhibition from MTT data at the highest inhibitor concentration ([1]; Fig. 4D): 86%
CC(N)C12CC3CC(CC(C3)C1)C2 (stereo not shown) [rimantadine, reference compound] |  |  | 4400 ± 1300 nM |  | potency of rimantadine higher than that of amantadine ([1]; cell viability assays): ~ tenfold; potency of rimantadine higher than that of amantadine ([3]; patch clamp experiments): approximately fourfold
epigallocatechin gallate [EGCG] | inhibitory activity | confirmed the inhibitory activity |  | 0.7 ± 0.1 | IC50 ([1]; read-out: IC50, reversing viroporin-induced cell damage): 1600 nM and 1560 nM; effect on viability of control cells (cytotoxic or proliferative effects) (HEK293 cells): increased cell proliferation; also recorded: increased cell viability; morphology of ORF3a-transfected cells after treatment [2]: healthy cells with normal morphology

— paper PMC10067842 (Scientific Reports, 2023)
